Values quoted from earlier work, collected in patent US20090291958A1, “Substituted PDE5 inhibitors” (Auspex Pharmaceuticals, Inc., priority 2006, published 2009).

Legend:
[1] = in vivo
PDE6 = conditions: share of patients; attributed to PDE6 modulation
PDE5 versus PDE6 = conditions: compared with sildenafil and vardenafil
[2] = in vivo; remark: listed apart in the source

CN1CC(=O)N2[C@H](c3ccc4c(c3)OCO4)c3[nH]c4ccccc4c3C[C@@H]2C1=O [tadalafil, Tadalafil]
half-life [1]: 17.5 h
patients with side effects of chromatopsia, increased sensitivity to light, and blurred vision (PDE6): less than 0.1%
selectivity for PDE5 versus PDE6 (PDE5 versus PDE6): much more selective than sildenafil and vardenafil
exercise tolerance [2]: improve exercise tolerance
rate of myocardial infarction [2]: lower rate of myocardial infarction than placebo
